Results: BindingDB's records for doi:10.1016/j.bmcl.2018.02.046 (AstraZeneca, 2018)

Target: Proprotein convertase subtilisin/kexin type 9 (Homo sapiens, UniProt Q8NBP7)
Assay: Inhibition of PCSK9 binding to LDLR in human HuH7 cells after 5 hrs by On-cell Western assay

Proprotein convertase subtilisin/kexin type 9, sequence (Q8NBP7 31-152 limits assumed): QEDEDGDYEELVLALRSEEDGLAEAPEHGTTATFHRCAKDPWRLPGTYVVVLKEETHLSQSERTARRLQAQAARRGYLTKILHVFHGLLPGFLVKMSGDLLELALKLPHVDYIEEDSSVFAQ
Proprotein convertase subtilisin/kexin type 9, sequence (Q8NBP7 153-692 limits assumed): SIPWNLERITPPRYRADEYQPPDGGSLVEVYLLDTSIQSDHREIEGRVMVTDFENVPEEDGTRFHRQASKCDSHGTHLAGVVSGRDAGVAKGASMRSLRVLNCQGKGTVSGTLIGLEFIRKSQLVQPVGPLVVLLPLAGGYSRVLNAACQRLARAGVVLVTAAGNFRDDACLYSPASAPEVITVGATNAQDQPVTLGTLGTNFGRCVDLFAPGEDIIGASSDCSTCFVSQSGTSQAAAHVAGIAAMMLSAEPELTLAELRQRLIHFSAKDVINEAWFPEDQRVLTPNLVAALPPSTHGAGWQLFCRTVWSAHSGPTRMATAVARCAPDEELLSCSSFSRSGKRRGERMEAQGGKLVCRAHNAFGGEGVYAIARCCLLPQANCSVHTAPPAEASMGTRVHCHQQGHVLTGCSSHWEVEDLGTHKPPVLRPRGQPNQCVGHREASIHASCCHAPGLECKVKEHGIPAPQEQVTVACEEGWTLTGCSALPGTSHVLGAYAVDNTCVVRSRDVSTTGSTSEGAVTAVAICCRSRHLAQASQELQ

## H-LILPKHSDAD-OH
  IC50: 1600 nM
